From patent publication US20050002552A1, “Automated in vitro cellular imaging assays for micronuclei and other target objects” (Pfizer Inc, priority 2003, published 2005)
Where two headings read alike, the source gives them in different places.

Experiments:
[1] = tested on: Chinese hamster ovary cells; conditions: stated as known; cited from earlier work
[2] = tested on: Chinese hamster ovary cells; test: In vitro micronucleus assay, non-Cytochalasin B protocol (mononucleated cells); conditions: cut-off double the DMSO value (micronuclei frequencies of 1.2% and higher are positive); manual or automated scoring; per run
Experimental: Accordingly, the method of this invention was also used to determine micronuclei frequency in non-cytokinesis-blocked cell samples (i.e., cell samples that were not treated with Cytochalasin B or the like) and, therefore, which were mononucleated.
In the second set of experiments, Chinese hamster ovary cells were used and the only difference in treatment and image acquisition protocol between runs in this set was the stimulus (i.e., chemical agent) with which the cells were incubated. Cytochalasin B was not used is this set of experiments (and, thus, the cells remained virtually all mononucleated throughout the experiment).

[3] = tested on: Chinese hamster ovary cells; conditions: cut-off two to three times the negative control value (1.1%); both wells, automated and manual scoring
Text: A small quantity of a discovery drug candidate will be added to each well (the amount will usually be in the range of from 0 micrograms to about 500 micrograms and often in the range of from 0 micrograms to about 100 micrograms), desirably in a carrier medium containing DMSO (dimethyl sulfoxide), ethanol, methanol, acetonitrile, and/or water.
A mixture such as one containing amino acids (e.g., L-glutamine), serum (e.g., 5% fetal bovine serum), and glucose will be added to the wells to provide an aqueous growth medium for the cells. […] The presence of binucleated cells in the microwell at the end of the process is proof that nuclear division occurred in the presence of the discovery drug candidate.
After the cells become attached to the plate bottom, a chemical stimulus (agent) such as a discovery drug candidate can be added to each well. […]
If more than one micronuclei is found in a single cell, the cell is likely undergoing nuclear fragmentation as a result of apoptosis (programmed cell-death) and, accordingly, should be discarded from the final analysis. The micronuclei rate or frequency can be calculated as the number of micronucleated cells divided by the total number of nuclear division in a sample (the rate or frequency may be converted to a percentage by multiplying the rate or frequency by 100).

CO[C@@]12[C@H](COC(N)=O)C3=C(C(=O)C(C)=C(N)C3=O)N1C[C@@H]1N[C@@H]12 [Mitomycin C]
Known aneugenicity/clastogenicity (positive control) [1]: aneugenic/clastogenic | Response call (clastogenic/aneugenic) against negative control [2]: positive | Response call (clastogenic/aneugenic) against negative control [3]: positive response
